Test results: patent publication US6656905B1, “Cyclic tetrapeptide compound and use thereof” (Fujisawa Pharmaceutical Co., Ltd., priority 1998, dated 2003)

How the values were obtained:
[1] = tested on: murine lymphocyte blastogenesis induced by anti-CD3 antibody (splenic cells of Balb/c mice); assay: Lymphocyte blastogenesis test (MTT dye reduction); assay type: cell-based; details: for Inhibition (%): 72 hours
Procedure: Effect on Lymphocyte Blastogenic Response
The lymphocyte blastogenesis test was performed in microtiter plates with each well containing 1×10^5 splenic cells of Balb/c mice in 0.1 ml RPMI-1640 medium supplemented with 10% fetal bovine serum (FBS), […] 2-mercaptoethanol, penicillin (100 units/ml) and streptomycin (100 μg/ml), to which anti-CD3 antibody (2C11) (1 μg/ml) was added. The cells were incubated at 37° C. in a humidified atmosphere of 5% CO2 for 72 hours. After the culture period, suppressive activities of the test samples in lymphocyte blastogenesis were quantified by an MTT [3-(4,5-dimethylthiazol-2-yl)-2,5-diphenyl-2H-tetrazolium bromide (MTT)] dye reduction assay.
WF27082 B was dissolved in methanol and further diluted in RPMI-1640 medium and added to the culture to give final concentrations of 50 ng/ml or less. FR235220 was dissolved in methanol and further diluted in RPMI-1640 medium and added to the culture to give final concentrations of 500 ng/ml or less. The results are shown in Table 2 and Table 3, respectively.

[2] = tested on: partially purified human histone deacetylase; assay: Activity of partially purified human histone deacetylase ([3H]acetyl histone assay); assay type: biochemical; details: for Effect on histone deacetylase activity (in words): summary of Table 5
Procedure: Effect on Activity of Partially Purified Human Histone Deacetylase
The partial purification of human histone deacetylase, the preparation of [^3H] acetyl histones, and the assay for histone deacetylase activity were basically performed according to the method as proposed by Yoshida et al. as follows.
Partial Purification of Human Histone Deacetylase—The human histone deacetylase was partially purified from human T cell leukemia Jurkat cells. Jurkat cells (5×10^8cells) were suspended in 40 ml of the HDA buffer consisting of 15 mM potassium phosphate, pH 7.5, 5% glycerol and 0.2 mM EDTA. After homogenization, nuclei were collected by centrifugation (35,000 ×g, 10 min) and homogenized in 20 ml of the same buffer supplemented with 1 M (NH4)2SO4. The viscous homogenate was sonicated and clarified by centrifugation (35,000 ×g, 10 min), and the deacetylase was precipitated by raising the concentration of (NH4)2SO4 to 3.5 M. The precipitated protein was dissolved in 10 ml of the HDA buffer and dialyzed against 4 liters of the same buffer. The dialyzate was then loaded onto a DEAE-cellulose (Whatman DE52) column (25×85 mm) equilibrated with the same buffer and eluted with a linear gradient (0-0.6 M) of NaCl (300 ml). A single peak fraction of histone deacetylase activity was eluted between 0.3 and 0.4 M NaCl.
Preparation of [^3H] Acetyl Histones—To obtain [^3H]acetyl-labeled histones as the substrate for the histone deacetylase assay, 1×10^8 cells of Jurkat in 20 ml of RPMI-1640 medium supplemented with 10% FBS, penicillin (50 units/ml) and streptomycin (50 μg/ml) were incubated with 300 MBq [^3H] sodium acetate in the presence of […] sodium butyrate for 30 min in 5% CO2-95% air atmosphere at 37° C. in a 75 cm2 flask, harvested into a centrifuge tube (50 ml), collected by centrifugation at 1000 rpm for 10 min, and washed once with phosphate-buffered saline. The washed cells were suspended in 15 ml of ice-cold lysis buffer (10 mM Tris-HCl, 50 mM sodium bisulfite, 1% Triton X-100, 10 mM MgCl2, 8.6% sucrose, pH 6.5). After Dounce homogenization (30 stroke), the nuclei were collected by centrifugation at 1000 rpm for 10 min, washed three times with 15 ml of the lysis buffer, and once with 15 ml of ice-old washing buffer (10 mM Tris-HCl, 13 mM EDTA, pH 7.4) successively. The pellet was suspended in 6 ml of ice-cold water using a mixer, and […] of H2SO4 was added to the suspension to give a concentration of 0.4 N. After incubation at 4° C. for 1 hour, the suspension was centrifuged for 5 min at 15,000 rpm, and the supernatant was taken and mixed with 60 ml of acetone. After overnight incubation at −20° C., the coagulated material was collected by microcentrifugation, air-dried, and stored at […].
Assay for Histone Deacetylase Activity—For the standard assay, 10 μl of [^3H]acetyl-labeled histones was added to 90 μl of the enzyme fraction, and the mixture was incubated at 25° C. for 30 min. The reaction was stopped by addition of 10 μl of HCl. The released [^3H]acetic acid was extracted with 1 ml of ethyl acetate, and 0.9 ml of the solvent layer was taken into 10 ml of toluene scintillation solution for determination of radioactivity.

[3] = Solubility in solvents (physico-chemical properties); assay type: physicochemical; details: solvents in which soluble

| Structure (SMILES) | Inhibition (%) ([1]; 4 ng/ml) | Inhibition (%) ([1]; 8 ng/ml) | Inhibition (%) ([1]; 16 ng/ml) | Inhibition (%) ([1]; 31 ng/ml) | Inhibition (%) ([1]; 63 ng/ml) | Inhibition (%) ([1]; 125 ng/ml) | Inhibition (%) ([1]; 250 ng/ml) | Inhibition (%) ([1]; 500 ng/ml) | Effect on murine lymphocyte blastogenesis (in words) ([1]; summary of Tables 2 and 3) | Inhibition (%) ([2]; 1 ng/ml) | Inhibition (%) ([2]; 10 ng/ml) | Inhibition (%) ([2]; 100 ng/ml) | Inhibition (%) ([2]; 1000 ng/ml) | Effect on histone deacetylase activity (in words) [2] | Solubility: Soluble [3] |
| --- | --- | --- | --- | --- | --- | --- | --- | --- | --- | --- | --- | --- | --- | --- | --- |
| CC(O)C(=O)CCCCCC1NC(=O)C2CCCN2C(=O)C(Cc2ccccc2)NC(=O)C(C)(C)NC1=O (centres unmarked) [FR235220] | −23.4 | −1.3 | 45.1 | 106.0 | 125.3 | 127.2 | 126.0 | 126.0 | suppressed murine lymphocyte blastogenesis induced by anti-CD3 antibody in a dose-dependent manner | −13.1 | 33.7 | 74.6 | 94.6 | potently inhibited | – |
| CCC1(C)NC(=O)C(CCCCCC(=O)C(C)O)NC(=O)C2CCCN2C(=O)C(Cc2ccccc2)NC1=O (centres unmarked) [WF27082 E] | – | – | – | – | – | – | – | – | – | 11.1 | 57.6 | 88.5 | 104.9 | potently inhibited | methanol, chloroform, ethyl acetate, dimethyl sulfoxide |
| CC1CC2C(=O)NC(CCCCCC(=O)C(C)O)C(=O)NC(C)(C)C(=O)NC(Cc3ccccc3)C(=O)N2C1 (centres unmarked) [WF27082 F] | – | – | – | – | – | – | – | – | – | 11.4 | 36.5 | 74.1 | 91.7 | potently inhibited | methanol, chloroform, ethyl acetate, dimethyl sulfoxide |
